Here are results for ten compounds from patent US20260306644A1, “ANTIBODY RECRUITING MOLECULES FOR THE TREATMENT OF CORONAVIRUS DISEASE-19” (priority 2023, published 2026).

Test [1] has as its system Spike RBD coated magnetic beads / RAW 264.7 macrophages. Put plainly: Antibody-dependent cellular phagocytosis (ADCP), RAW 264.7 macrophages and Spike RBD coated magnetic beads, flow cytometry. The settings on record: 37° C., 2 hours, read-out: SARS-COV-2 ADCP EC50. Format: cell-based. How it is done: The ability of the compounds to mediate antibody-dependent cellular phagocytosis (ADCP) was assessed using RAW 264.7 macrophages and Spike RBD coated magnetic beads (https://www.acrobiosystems.com/P3194-SARS-CoV-2-Spike-RBD-coupled-Magnetic-Beads.html). Spike RBD coated magnetic beads (3 ul per well) were added to each well of a round bottom 96-well plates. RAW264.7 cells (50,000 cells per well) were added to the beads. Next, the compounds were administered to predetermined final concentrations. The cell-bead mixtures were incubated at 37° C. for 2 hours. The mixtures were then analyzed by flow cytometry.
A general note: Flow cytometry measures light scatter and fluorescence of single cells or particles in a stream.

The target of test [2] is SARS-CoV-2 Spike protein (Severe acute respiratory syndrome coronavirus 2, UniProt P0DTC2). In words: Ternary binding of SARS-CoV-2 Spike protein (293T cells expressing Spike-GFP, IgG-AF647, flow cytometry). As to conditions: 293T cells expressing Spike-GFP; IgG-AF647 10 μg/ml; repeat values/batches listed separately; read-out: SARS-CoV-2 Ternary binding EC50. Format: cell-based.

Test [3] deals with T1, SARS-CoV-2 Spike A (wild-type) (Severe acute respiratory syndrome coronavirus 2, UniProt P0DTC2).
T1 construct: purchased Meso Scale Diagnostics, LLC V-PLEX SARS-CoV-2 Panel 13 (ACE2) Kit / Panel 23 (ACE2) Kit
Put plainly: MSD ACE2 competition assay (inhibition of Spike binding with ACE2, ECL), A (wild-type).

Setting [4] is: read-out: IC50 Wild Type, Wild Type Spike.
The mark [5] stands for this setting: IC50 Wild Type, Wild Type Spike.

Values joined by “and” are separate entries in the source; they are usually repeats but may differ in a detail not shown here. Equal values may be shown once. Read-outs that look alike come from different tables or passages of the source. Positions of bridges follow the written chain, without caps; N, C: chain ends. No end group written: not given here.

For the compound `CC[C@H](C)[C@H](NC(=O)[C@H](CC(C)C)NC(=O)[C@H](CC(=O)O)NC(=O)[C@H](CO)NC(=O)[C@@H](NC(=O)[C@H](CCCNC(=N)N)NC(=O)[C@H](CCSC)NC(=O)[C@H](CO)NC(=O)[C@H](C)NC(=O)[C@H](CCC(=O)O)NC(=O)[C@H](C)NC(=O)[C@H](Cc1c[nH]cn1)NC(=O)CNC(=O)[C@H](CC(C)C)NC(=O)[C@H](CCC(=O)O)NC(=O)[C@H](CC(=O)O)NC(=O)[C@H](CC(C)C)NC(=O)[C@H](CC(C)C)NC(=O)[C@H](CCCNC(=N)N)NC(=O)[C@H](CCSC)NC(=O)[C@@H](NC(=O)[C@H](CCC(=O)O)NC(=O)[C@H](Cc1ccc(O)cc1)NC(=O)[C@@H](NC(=O)[C@H](CCCCN)NC(=O)[C@H](CCC(N)=O)NC(=O)[C@H](CC(C)C)NC(=O)[C@@H](NC(=O)[C@H](Cc1c[nH]c2ccccc12)NC(=O)[C@H](CCC(=O)O)NC(=O)[C@H](CCCCN)NC(=O)[C@H](CC(=O)O)NC(C)=O)[C@@H](C)CC)[C@@H](C)CC)[C@@H](C)CC)C(C)C)C(=O)N[C@@H](Cc1ccc(O)cc1)C(=O)N[C@@H](CCC(=O)O)C(=O)N[C@@H](Cc1ccccc1)C(=O)N[C@@H](CCSC)C(=O)N[C@@H](CCCCN)C(=O)N[C@@H](CCCCN)C(=O)NCC(=O)N[C@@H](CC(=O)O)C(=O)N[C@@H](CCC(=O)O)C(=O)N[C@@H](CCCNC(=N)N)C(=O)N[C@@H](CC(C)C)C(=O)N[C@@H](CC(C)C)C(=O)N[C@@H](CCC(=O)O)C(=O)N[C@@H](CCC(=O)O)C(=O)N[C@@H](C)C(=O)N[C@@H](CCC(=O)O)C(=O)N[C@@H](CCCNC(=N)N)C(=O)N[C@@H](CC(C)C)C(=O)N[C@@H](CC(C)C)C(=O)N[C@@H](CCC(=O)O)C(=O)N[C@@H](CCC(=O)O)C(=O)N[C@H](C(=O)N[C@@H](CCC(=O)O)C(=O)N[C@@H](CCCNC(=N)N)C(=O)NCCOCCOCCOCCOCCOCCOCCOCCOCCC(=O)NCCOCCOCCOCCOCCOCCOCCOCCOCCC(=O)N[C@@H](CC(=O)O)C(=O)N[C@H]1CSSC[C@@H](C(=O)N[C@H](C(N)=O)[C@@H](C)O)NC(=O)[C@H](Cc2c[nH]c3ccccc23)NC(=O)[C@H](C(C)C)NC(=O)[C@H](CC(C)C)NC(=O)[C@H](CCC(=O)O)NC(=O)CNC(=O)[C@H](CC(C)C)NC(=O)[C@H](Cc2c[nH]cn2)NC(=O)[C@H](Cc2c[nH]c3ccccc23)NC(=O)[C@H](C)NC1=O)C(C)C` [Compound 124], the EC50 (as a rule, the concentration needed to bring the measured effect to its halfway point) in test [1] came to 0.43 nM. Take `CC[C@H](C)[C@H](NC(=O)[C@H](CC(C)C)NC(=O)[C@H](CC(=O)O)NC(=O)[C@H](CO)NC(=O)[C@@H](NC(=O)[C@H](CCCNC(=N)N)NC(=O)[C@H](CCSC)NC(=O)[C@H](CO)NC(=O)[C@H](C)NC(=O)[C@H](CCC(=O)O)NC(=O)[C@H](C)NC(=O)[C@H](Cc1c[nH]cn1)NC(=O)CNC(=O)[C@H](CC(C)C)NC(=O)[C@H](CCC(=O)O)NC(=O)[C@H](CC(=O)O)NC(=O)[C@H](CC(C)C)NC(=O)[C@H](CC(C)C)NC(=O)[C@H](CCCNC(=N)N)NC(=O)[C@H](CCSC)NC(=O)[C@@H](NC(=O)[C@H](CCC(=O)O)NC(=O)[C@H](Cc1ccc(O)cc1)NC(=O)[C@@H](NC(=O)[C@H](CCCCN)NC(=O)[C@H](CCC(N)=O)NC(=O)[C@H](CC(C)C)NC(=O)[C@@H](NC(=O)[C@H](Cc1c[nH]c2ccccc12)NC(=O)[C@H](CCC(=O)O)NC(=O)[C@H](CCCCN)NC(=O)[C@H](CC(=O)O)NC(C)=O)[C@@H](C)CC)[C@@H](C)CC)[C@@H](C)CC)C(C)C)C(=O)N[C@@H](Cc1ccc(O)cc1)C(=O)N[C@@H](CCC(=O)O)C(=O)N[C@@H](Cc1ccccc1)C(=O)N[C@@H](CCSC)C(=O)N[C@@H](CCCCN)C(=O)N[C@@H](CCCCN)C(=O)NCC(=O)NCCOCCOCCOCCOCCOCCOCCOCCOCCC(=O)NCCOCCOCCOCCOCCOCCOCCOCCOCCC(=O)NCCOCCOCCOCCOCCOCCOCCOCCOCCC(=O)N[C@@H](CC(=O)O)C(=O)N[C@H]1CSSC[C@@H](C(=O)N[C@H](C(=O)O)[C@@H](C)O)NC(=O)[C@H](Cc2c[nH]c3ccccc23)NC(=O)[C@H](C(C)C)NC(=O)[C@H](CC(C)C)NC(=O)[C@H](CCC(=O)O)NC(=O)CNC(=O)[C@H](CC(C)C)NC(=O)[C@H](Cc2c[nH]cn2)NC(=O)[C@H](Cc2c[nH]c3ccccc23)NC(=O)[C@H](C)NC1=O` [Compound 168]: in test [2], the EC50 worked out at 0.19 nM. Besides, the IC50 (usually the midpoint of a concentration-inhibition curve) in test [3] (setting [4]) is 3.26 nM.

For the compound “Ac-DCAWHLGELVWCTILQKIYEIMRLLDELGHAEASMRVSDLIYEFMKK (disulfide 2-12) [Compound 122]”, the EC50 in test [2] was greater than 10 nM. In test [3] (setting [5]), the IC50 was found to be 33.5 nM. For the compound “Ac-DKEWILQKIYEIMRLLDELGHAEASMRVSDLIYEFMKKGGGGGGGGGDCAWHLGELVWCT (disulfide 49-59) [Compound 166]”, the EC50 in test [2] came out at 0.23 nM. Besides, the IC50 in test [3] (setting [4]) is 16.6 nM. With “Ac-ILQKIYEICRLLDELGHAEASMRCSDLIYEFMKKGDCAWHLGELVWCT-NH2 (disulfide 9-24, 37-47) [Compound 141]”, the EC50 in test [2] is 3.4 nM and 2.1 nM. The IC50 in test [3] (setting [4]) was 25.1 nM and 43.8 nM and 30.1 nM. Regarding “Ac-ILQKIYEIMRLCDELGHAEACMRVSDLIYEFMKKGDCAWHLGELVWCT-NH2 (disulfide 12-21, 37-47) [Compound 139]”, the EC50 in test [2] was 17 nM and 13 nM. In test [3] (setting [4]), the IC50 is 315 nM and 514 nM and 259 nM. On to “Ac-ILQKIYEIMRLLDELGHAEASMRVSDLIYEFMKKDCAWHLGELVWCT (disulfide 36-46) [Compound 118]”, for which the EC50 in test [2] was 0.53 nM and 0.61 nM. For the same compound, in test [3] (setting [5]), the IC50 was 61.9 nM and 62.5 nM. Take “Ac-QKIYEICRLLDELGHAEASMRCSDLIYEFMKKGDCAWHLGELVWCT-NH2 (disulfide 7-22, 35-45) [Compound 140]”: in test [2], the concentration giving a half-maximal response (EC50) is greater than 100 nM. The IC50 in test [3] (setting [4]) came out at 1560 nM. “Ac-QKIYEIMRLCDELGHAEACMRVSDLIYEFMKKGDCAWHLGELVWCT-NH2 (disulfide 10-19, 35-45) [Compound 164]”: the EC50 in test [2] was greater than 100 nM. The IC50 in test [3] (setting [4]) is greater than 10000 nM.

As to “ILQKIYEIMRLLDELGHAEASMRVSDLIYEFMKKDCAWHLGELVWCT (disulfide 36-46) [Compound 119]”, the EC50 in test [2] is 2.4 nM and 2.9 nM. Further, the IC50 in test [3] (setting [5]) was 46.6 nM and 66.7 nM.
